Where two headings read alike, the source gives them in different places.
Experiments:
c-Src-ES3 (T338C/V323S) = c-Src-ES3 (T338C/V323S) (Gallus gallus (Chicken), UniProt P00523, T338C/V323S); assay: In vitro kinase assay, c-Src-ES3; format: biochemical; conditions: ES3 = T338C/V323S; read-out: c-Src variant IC50 (nM) ES3
Procedure: (§1) In vitro kinase assays for c-Src variants were performed in 50 mM Tris (pH 8.0), 10 mM MgCl2 and 1 mg/mL BSA. When obtaining kinetic parameters (kcat, Km) kinase and peptide substrate (IYGEFKKK) (SEQ ID NO:51) concentrations were 2 nM and 500 μM, respectively, while ATP concentrations ranged from 2000-0.655 μM. Addition of nonradioactive ATP supplemented with ^32P ATP (3,000 Ci/mmol, NEN) was used to initiate kinase reactions. Time points were selected such that product formation never exceeded 10%. Reactions were quenched by spotting 3 μL quantities onto phosphocellulose sheets (P81, Whatman). Afterwards, the sheets were washed 3×5 minutes in 0.5% phosphoric acid and dried. Radioactivity was measured by phosphorimaging and recorded on a Typhoon fluorescence imager (Molecular Dynamics). Data were plotted as rate (min^−1) versus ATP concentration and fitted to the Michaelis-Menten equation, v=[(kcat)[S]]/(Km+[S]), using Kaleidagraph software (Synergy) to extract kinetic parameters. When obtaining IC50 values for the inhibitors, 2% (v/v) DMSO was included in kinase reactions. In these cases ATP, peptide, and enzyme concentrations were 15 nM, 100 μM and 5 nM, respectively, while inhibitor concentrations ranged from 10,000-0.610 nM. In all cases, a ten-minute preincubation step between the kinase and the inhibitor preceded addition of ATP and a fifteen-minute reaction. The data was fitted to a sigmoidal dose-response curve using Prism 4.0c (GraphPad Software) to obtain IC50 values.

T338C c-Src [1] = biological target: T1, T338C c-Src (Gallus gallus (Chicken), UniProt P00523, T338C); assay: Gel filtration and kinetic assay, T338C c-Src; format: biochemical; conditions: 23 μM inhibitor, 25 minutes, then PD10 desalting
Procedure: (§2) Inhibitors (final concentration 23 μM) were incubated with c-Src variants (final concentration 11.5 μM) in kinase reaction buffer (50 mM Tris pH 8, 100 mM NaCl, 1 mM DTT, 5% glycerol, 5% DMSO) for 25 minutes at room temperature. The solutions (2.6 mL total) were then passed over PD10 desalting columns (GE Healthcare) using the kinase reaction buffer for elution. Src concentrations were calculated using the extinction coefficient for c-Src (51.140 mM^−1cm^−1) {Seeliger, 2005 #100}. Kinase assays were performed as described in the experimental section at a final enzyme concentration of 10 nM.

T338C c-Src [2] = biological target: T1, T338C c-Src; assay: Full protein mass spectrometry of covalent labeling; format: binding; conditions: two equivalents of inhibitor
Procedure: Protein labeling conditions: Kinase labeling reactions were performed by incubating 30 μL quantities of c-Src variants (in 50 mM Tris pH 8, 100 mM NaCl, 1 mM DTT, 5% glycerol) with two equivalents of inhibitor in DMSO (final DMSO concentration=2.4%). The covalent labeling reaction was quenched by removing 4 μL and adding it to 31 μL of 0.1% formic acid. The sample was then analyzed by ES1-oa-TOF mass spectrometry.

WT c-Src [3] = biological target: T2, WT c-Src (Gallus gallus (Chicken), UniProt P00523); assay: In vitro kinase assay, WT c-Src; format: biochemical; conditions: inhibitor preincubated with Src ten minutes prior to addition of ATP; read-out: WT c-Src IC50
Procedure: as §1

c-Src-ES2 (T338C/V323A) = c-Src-ES2 (T338C/V323A) (Gallus gallus (Chicken), UniProt P00523, T338C/V323A); assay: In vitro kinase assay, c-Src-ES2; format: biochemical
Procedure: as §1

T338C c-Src [4] = biological target: T1, T338C c-Src; assay: In vitro kinase assay, T338C c-Src (c-Src-ES1); format: biochemical
Procedure: as §1, with “In all cases, a ten-minute preincubation step between the kinase and the inhibitor preceded addition of ATP and a fifteen-minute reaction.” left out

WT c-Src [5] = biological target: T2, WT c-Src; assay: Gel filtration and kinetic assay, WT c-Src; format: biochemical; conditions: 23 μM inhibitor, 25 minutes, then PD10 desalting
Procedure: as §2

307 kinases = assay: Kinome-wide profiling (SelectScreen Kinase Profiling Service); format: biochemical; conditions: compounds at 1 μM, ATP at Km,app
Procedure: The percent inhibition results in FIG. were generated with biochemical enzymatic kinase assays using the SelectScreen® Kinase Profiling Service (Life Technologies Corporation, Madison, Wis.). Compounds were assayed at 1 μM at an ATP concentration equal to the ATP Km,app for the assay following the detailed procedures described in the SelectScreen® Customer Protocol and Assay Conditions documents located at www.invitrogen.com/kinaseprofiling.
Compounds that were profiled include, but are not limited to, 3, 4, 9, 13, and 20. […] The exocyclic amine mimics N6 of ATP and plays an important role in a hydrogen bonding interaction with the hinge region of kinases.

v-Src-ES1 (I338C) = v-Src-ES1 (I338C) (Rous sarcoma virus (strain H-19), UniProt P25020, I338C); assay: Inhibition assay with v-Src-ES1 transformed NIH-3T3 cells; format: cell-based
Procedure: (§3) Curr Biol 8(5):257-266. Cells were grown to 60-90% confluence in DMEM supplemented with fetal bovine serum (10%), penicillin ‘G’ (100 units/ml) and streptomycin sulfate (100 μg/ml) (PenStrep, UCSF Cell Culture Facility) prior to treatment with kinase inhibitors dissolved in DMSO (final DMSO concentration, 0.5%). Following 1 hour of incubation with inhibitors at 37° C., cells were harvested in lysis buffer (50 mM Tris (pH 7.4), 300 mM NaCl, 5 mM EDTA, 1% triton, 0.02% NaN3, 1× complete mini protease inhibitor (Roche), 1 mM PMSF, 1×PHOS-stop (Roche), 0.02 μM microcystin, 2 mM sodium orthovanadate), normalized for concentration and analyzed by Western blot for global phosphotyrosine levels (4G10, Millipore, 1:1000). Levels of β-actin (β-actin Antibody, Cell Signaling, 1:1000) and v-Src (Src 32G6 rabbit mAb, Cell Signaling, 1:1000) were ascertained by Western blot.
(§4) I338C (v-Src-ES1, SEQ ID NO:48), I338T (SEQ ID NO:49), I338G (v-Src-AS1, SEQ ID NO:50) and WT v-Src-transformed NIH-3T3 cell lines were generated. Unlike c-Src, v-Src is constitutively active and harbors an isoleucine gatekeeper. The I338T v-Src variant was generated for consistency with the in vitro c-Src studies. For each cell line, global levels of phosphotyrosine were analyzed (FIG. 7). […]

I338T v-Src = I338T v-Src (Rous sarcoma virus (strain H-19), UniProt P25020, I338T); format: cell-based
Procedure: as §3, §4

Toxicity profiles (LD50) = conditions: FIG. 17-19
[6] = inhibitor preincubated with Src ten minutes prior to addition of ATP, read-out: T338C c-Src IC50

C=CS(=O)(=O)Nc1cccc(Cc2nn(C(C)C)c3ncnc(N)c23)c1 [Compound 9, N-(3-((4-amino-1-isopropyl-1H-pyrazolo[3,4-d]pyrimidin-3-yl)methyl)phenyl)ethenesulfonamide]
IC50 (c-Src-ES3 (T338C/V323S)): 424 nM
inhibitory activity after gel filtration, T338C c-Src (T338C c-Src [1]): retained
covalent labeling / adduct formation by full protein mass spectrometry (T338C c-Src [2]): specific labeling of T338C relative to WT c-Src
IC50 (WT c-Src [3]): > 5 µM
IC50 (c-Src-ES2 (T338C/V323A); ES2 = T338C/V323A, read-out: c-Src variant IC50 (nM) ES2): 207 nM
change of inhibitor potency upon second-site Val323 mutations (c-Src-ES2 (T338C/V323A); c-Src-ES2 and c-Src-ES3 relative to c-Src-ES1): not modulated appreciably
time dependence of inhibition of T338C c-Src (T338C c-Src [4]): time-dependent manner
IC50 (T338C c-Src [4]; ES1 = T338C, read-out: c-Src variant IC50 (nM) ES1): 150 nM
IC50 (T338C c-Src [4]; T338C c-Src IC50 (nM), preincubation time 2 min): 981 nM
IC50 (T338C c-Src [4]; T338C c-Src IC50 (nM), preincubation time 20 min): 309 nM
IC50 (T338C c-Src [4]; T338C c-Src IC50 (nM), preincubation time 40 min): 138 nM
IC50 (T338C c-Src [4]; [6]): 150 nM
inhibitory activity after gel filtration, WT c-Src (WT c-Src [5]): lost
off-target profile in kinome-wide screen (307 kinases): relatively few off-target effects
inhibition of v-Src-ES1 in cells (global phosphotyrosine levels) (v-Src-ES1 (I338C)): inhibited v-Src-ES1 in a dose-dependent manner
inhibition of I338T v-Src in cells (global phosphotyrosine levels) (I338T v-Src): neither 9 nor 13 inhibited I338T v-Src

C=CS(=O)(=O)Nc1cccc(Nc2ncnc3cc(OC)c(OC)cc23)c1 [Compound 19, N-(3-(6,7-dimethoxyquinazolin-4-ylamino)phenyl)ethenesulfonamide]
IC50 (WT c-Src [3]): > 5 µM
IC50 (T338C c-Src [4]; [6]): 1000 nM
LD50 (Toxicity profiles (LD50)): 3.92 µM

Reference: patent US9353116B2, “Methods and compositions for kinase inhibition” (THE REGENTS OF THE UNIVERSITY OF CALIFORNIA, priority 2010, dated 2016)
